Data published in US6579989B1, “Sulphostin analogue and process for producing sulphostin and its analogue” (Zaidan Hojin Biseibutsu Kagaku Kenkyu Kai, priority 1999, dated 2003).

Biological target: T1, dipeptidylpeptidase IV (Rattus norvegicus, UniProt P14740)
T1 construct: partially purified through ammonium sulfate fractionation of a homogenate obtained from a kidney of a rat; from tissue; host or cells: rat kidney homogenate
Assay: Measurement of dipeptidylpeptidase IV inhibiting activity (glycyl prolyl β-naphthylamide substrate, absorbance at 525 nm)
Assay type: biochemical
Details: IC50 (dipeptidylpeptidase IV inhibition activity), enzyme partially purified from rat kidney homogenate; pH 7.2, 37° C., 1 hour
Method: Measurement of Dipeptidylpeptidase IV Inhibiting Activity
Water was added to a mixture of 0.025 ml of 3.2 mM glycyl prolyl β-naphthylamide (BACHEM, Switzerland), 0.1 ml of 0.1 M tris-maleic acid buffer solution (pH 7.2) and a compound shown in Table 1, so that a final volume was adjusted to 0.2 ml. The resulting mixed solution was warmed at 37° C. for 10 minutes, and 0.025 ml of a dipeptidylpeptidase IV solution partially purified through ammonium sulfate fractionation of a homogenate obtained from a kidney of a rat was added thereto. Then, the reaction was continued at 37° C. for 1 hour. […] At the same time, a blank test was conducted to measure absorbance (b) of the buffer solution containing no specimen. A dipeptidylpeptidase IV inhibition percent was calculated from the expression: [(b−a)/b]×100.

T1 sequence (P14740 whole entry): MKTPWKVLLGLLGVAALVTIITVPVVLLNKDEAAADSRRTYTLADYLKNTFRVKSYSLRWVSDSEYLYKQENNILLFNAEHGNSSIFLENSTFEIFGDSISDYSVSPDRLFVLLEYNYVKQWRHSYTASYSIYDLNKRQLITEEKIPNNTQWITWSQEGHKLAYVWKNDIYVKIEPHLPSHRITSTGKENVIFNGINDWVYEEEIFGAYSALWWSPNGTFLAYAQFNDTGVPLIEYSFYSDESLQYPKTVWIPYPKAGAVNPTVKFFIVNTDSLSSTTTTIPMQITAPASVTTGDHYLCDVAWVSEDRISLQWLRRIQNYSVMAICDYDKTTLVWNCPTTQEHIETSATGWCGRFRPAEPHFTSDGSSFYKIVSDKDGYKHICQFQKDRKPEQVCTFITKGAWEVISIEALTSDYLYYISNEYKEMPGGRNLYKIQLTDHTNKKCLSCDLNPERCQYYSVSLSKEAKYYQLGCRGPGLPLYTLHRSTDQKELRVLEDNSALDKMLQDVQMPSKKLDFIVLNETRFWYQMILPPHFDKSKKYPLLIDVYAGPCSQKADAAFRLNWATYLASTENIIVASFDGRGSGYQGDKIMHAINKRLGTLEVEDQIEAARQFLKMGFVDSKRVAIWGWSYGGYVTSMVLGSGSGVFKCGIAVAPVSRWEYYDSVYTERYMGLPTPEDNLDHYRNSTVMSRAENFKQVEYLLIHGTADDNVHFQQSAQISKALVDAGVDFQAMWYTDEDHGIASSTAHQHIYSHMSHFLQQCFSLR

Structure (SMILES)	IC50
N[C@H]1CCN(P(N)(=O)NS(=O)(=O)O)C1=O (single isomer, unassigned) [Compound 20, 3(S)-Amino-1-((S*)-amino(sulfoamino)phosphinyl)-2-pyrrolidone]	1820 nM
N[C@H]1CCN(P(N)(=O)NS(=O)(=O)O)C1=O (single isomer, unassigned) [Compound 21, 3(S)-Amino-1-((R*)-amino(sulfoamino)phosphinyl)-2-pyrrolidone]	15.1 nM
